One block for each molecule: values may come before it. Active and inactive are the calls of the source.
Tests used:
HEK293 [1] = experiment: cells; format: functional, cell-based; conditions: Homo sapiens
[2] = blockers of HIV-1 envelope-mediated cell-cell fusion – cherry-pick, dose response (AID 652057); format: functional, cell-based
HEK293 [3] = experiment: inhibition of NOD1-driven NF-kB reporter – cell-based, luminescence, uHTS, primary screen (AID 1578); format: functional; conditions: Homo sapiens
[4] = HIV-1 AD8 envelope cell-cell fusion blockers – cherry-pick, dose response (AID 652062); format: functional, cell-based;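 further: luciferase signal from cell-cell fusion driven by HIV-1 clade B AD8 Env; potency is for inhibitors of fusion seen as a drop in luminescence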
[5] = biological target: Neurotensin receptor type 1 (Homo sapiens, UniProt P30989); format: functional;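 further: Image-based confirmatory dose-response assay measuring agonist activity at NTR1; NTR1-expressing U2OS osteosarcoma cells imaged for beta-arrestin GFP spot formation; agonist potency where compounds increase beta-arrestin recruitment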
Chain of Neurotensin receptor type 1 (P30989 whole entry): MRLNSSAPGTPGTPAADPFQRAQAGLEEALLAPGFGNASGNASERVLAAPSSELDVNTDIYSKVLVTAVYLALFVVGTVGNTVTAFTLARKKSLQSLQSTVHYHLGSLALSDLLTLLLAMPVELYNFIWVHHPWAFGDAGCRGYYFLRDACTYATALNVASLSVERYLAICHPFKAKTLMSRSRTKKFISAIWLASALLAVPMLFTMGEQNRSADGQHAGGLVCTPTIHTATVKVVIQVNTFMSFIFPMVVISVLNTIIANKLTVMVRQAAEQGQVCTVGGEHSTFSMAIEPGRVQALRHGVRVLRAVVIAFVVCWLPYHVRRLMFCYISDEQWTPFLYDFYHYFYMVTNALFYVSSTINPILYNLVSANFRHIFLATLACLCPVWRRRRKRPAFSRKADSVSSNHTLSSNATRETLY

HEK293 [6] = experiment: cells; format: functional, cell-based; conditions: Homo sapiens; remark: listed apart in the source
[7] = biological target: Nucleotide-binding oligomerization domain-containing protein 2 (Homo sapiens, UniProt Q9HC29); experiment: inhibition of NOD2-driven NF-kB reporter – cell-based, luminescence, uHTS, HEK293 (AID 1566); format: functional
Chain of Nucleotide-binding oligomerization domain-containing protein 2 (Q9HC29 whole entry, the tested form may be a part): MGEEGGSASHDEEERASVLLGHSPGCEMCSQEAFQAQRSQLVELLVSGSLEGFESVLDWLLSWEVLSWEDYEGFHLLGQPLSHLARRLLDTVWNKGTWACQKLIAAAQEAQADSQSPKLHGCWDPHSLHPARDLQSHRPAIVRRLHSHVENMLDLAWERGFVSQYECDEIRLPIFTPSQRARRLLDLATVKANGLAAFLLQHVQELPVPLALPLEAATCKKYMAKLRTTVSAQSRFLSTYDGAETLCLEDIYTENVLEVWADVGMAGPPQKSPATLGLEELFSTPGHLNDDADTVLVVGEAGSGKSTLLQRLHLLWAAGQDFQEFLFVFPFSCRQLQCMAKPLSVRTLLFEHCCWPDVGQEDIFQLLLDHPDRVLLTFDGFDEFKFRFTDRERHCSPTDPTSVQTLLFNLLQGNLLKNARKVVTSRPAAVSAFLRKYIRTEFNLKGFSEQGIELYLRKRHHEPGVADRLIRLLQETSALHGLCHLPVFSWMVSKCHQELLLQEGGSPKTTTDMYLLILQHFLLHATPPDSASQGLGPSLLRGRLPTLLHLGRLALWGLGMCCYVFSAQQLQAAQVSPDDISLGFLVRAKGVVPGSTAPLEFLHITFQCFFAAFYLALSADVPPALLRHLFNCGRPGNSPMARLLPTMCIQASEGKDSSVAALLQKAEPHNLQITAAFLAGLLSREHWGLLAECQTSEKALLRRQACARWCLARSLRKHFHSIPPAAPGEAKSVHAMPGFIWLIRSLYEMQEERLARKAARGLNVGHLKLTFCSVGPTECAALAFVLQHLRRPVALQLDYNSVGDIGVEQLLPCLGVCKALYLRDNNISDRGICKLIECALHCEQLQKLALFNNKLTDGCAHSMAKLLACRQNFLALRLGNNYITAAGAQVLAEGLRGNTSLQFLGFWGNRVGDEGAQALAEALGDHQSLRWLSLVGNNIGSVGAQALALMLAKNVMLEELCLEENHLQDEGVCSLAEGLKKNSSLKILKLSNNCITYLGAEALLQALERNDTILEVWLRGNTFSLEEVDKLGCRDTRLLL

HEK293 [8] = experiment: NOD2 signaling inhibitors in MDP-stimulated cells, cell-based, uHTS, luminescence (AID 2001); format: functional; conditions: Homo sapiens
HEK293 [9] = experiment: cells; format: functional, cell-based; conditions: Homo sapiens; remark: listed apart in the source
[10] = viability loss in CEM21 cells – cell-based, CellTiter-Glo luminescence, cherry-picked, cytotoxicity control for viral fusion inhibitor project, dose response (AID 652042); format: functional;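 further: potency for signal decrease meaning cytotoxicity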
Cytochrome P450 2D6 = Cytochrome P450 2D6 (Homo sapiens, UniProt P10635);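 further: CYP2D6 member of a cytochrome P450 panel assay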
Chain of Cytochrome P450 2D6 (P10635 whole entry): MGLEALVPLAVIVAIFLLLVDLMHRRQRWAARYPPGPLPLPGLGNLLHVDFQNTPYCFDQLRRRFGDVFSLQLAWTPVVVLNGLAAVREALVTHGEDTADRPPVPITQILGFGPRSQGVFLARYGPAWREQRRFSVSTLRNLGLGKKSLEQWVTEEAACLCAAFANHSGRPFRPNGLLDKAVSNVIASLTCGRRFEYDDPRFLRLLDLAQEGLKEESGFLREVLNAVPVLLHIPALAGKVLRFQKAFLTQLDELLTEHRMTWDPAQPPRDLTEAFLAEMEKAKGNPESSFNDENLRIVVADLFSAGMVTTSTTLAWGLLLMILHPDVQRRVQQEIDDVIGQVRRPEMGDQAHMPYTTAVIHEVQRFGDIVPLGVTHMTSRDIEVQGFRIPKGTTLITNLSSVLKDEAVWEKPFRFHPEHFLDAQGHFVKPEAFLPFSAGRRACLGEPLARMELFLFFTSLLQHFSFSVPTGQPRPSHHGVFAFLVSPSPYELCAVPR

Cytochrome P450 3A4 = Cytochrome P450 3A4 (Homo sapiens, UniProt P08684);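 further: CYP3A4 tested as one member of a cytochrome P450 panel screen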
[11] = biological target: Peroxisome proliferator-activated receptor gamma/Nuclear receptor coactivator 2 (Homo sapiens, UniProt P37231); experiment: (§1) TR-FRET dose response biochemical High Throughput Screening assay for agonists of the steroid receptor coactivator 2 (SRC-2) recruitment by the peroxisome proliferator-activated receptor gamma (PPAR gamma): non-selective agonists. [Related pubchem assays: 1297, 1032 ]; format: functional
[12] = biological target: Peroxisome proliferator-activated receptor gamma/Nuclear receptor coactivator 3 (Homo sapiens, UniProt P37231); experiment: as §1, with “3 (SRC-3)” for “2 (SRC-2)”, “1301 (Confirmation screen.), 1048 (Primary screen.)]” for “1297, 1032 ]”; format: functional
[13] = biological target: Peroxisome proliferator-activated receptor gamma/Nuclear receptor coactivator 1 (Homo sapiens, UniProt P37231); experiment: as §1, with “1 (SRC-1)” for “2 (SRC-2)”, “assays (depositor defined):AID1300, AID1808, AID504735, AID631]” for “assays: 1297, 1032 ]”; format: protein assay
SUMO E1/E2 = SUMO E1/E2 (Homo sapiens, UniProt P63279+Q9UBE0+Q9UBT2); experiment: SAR analysis of SUMOylation using HTRF in an in-Vitro dose response assay. [Related pubchem assays (depositor defined):AID2006, AID2011, AID2018, AID2069, AID2658]; format: functional
HEK293 [14] = experiment: cells; conditions: Homo sapiens
HEK293 [15] = experiment: cells; conditions: Homo sapiens; remark: listed apart in the source
[16] = biological target: T1, Voltage-gated N-type calcium channel alpha-1B subunit/Amyloid beta A4 precursor protein-binding family A member 1 (Homo sapiens, UniProt Q00975+Q02410); experiment: disruptors of Mint-PDZ/N-type channel peptide interaction – biochemical, HTRF, set 2, SAR follow-up (AID 434980); format: functional
T1 sequence (Q00975 whole entry): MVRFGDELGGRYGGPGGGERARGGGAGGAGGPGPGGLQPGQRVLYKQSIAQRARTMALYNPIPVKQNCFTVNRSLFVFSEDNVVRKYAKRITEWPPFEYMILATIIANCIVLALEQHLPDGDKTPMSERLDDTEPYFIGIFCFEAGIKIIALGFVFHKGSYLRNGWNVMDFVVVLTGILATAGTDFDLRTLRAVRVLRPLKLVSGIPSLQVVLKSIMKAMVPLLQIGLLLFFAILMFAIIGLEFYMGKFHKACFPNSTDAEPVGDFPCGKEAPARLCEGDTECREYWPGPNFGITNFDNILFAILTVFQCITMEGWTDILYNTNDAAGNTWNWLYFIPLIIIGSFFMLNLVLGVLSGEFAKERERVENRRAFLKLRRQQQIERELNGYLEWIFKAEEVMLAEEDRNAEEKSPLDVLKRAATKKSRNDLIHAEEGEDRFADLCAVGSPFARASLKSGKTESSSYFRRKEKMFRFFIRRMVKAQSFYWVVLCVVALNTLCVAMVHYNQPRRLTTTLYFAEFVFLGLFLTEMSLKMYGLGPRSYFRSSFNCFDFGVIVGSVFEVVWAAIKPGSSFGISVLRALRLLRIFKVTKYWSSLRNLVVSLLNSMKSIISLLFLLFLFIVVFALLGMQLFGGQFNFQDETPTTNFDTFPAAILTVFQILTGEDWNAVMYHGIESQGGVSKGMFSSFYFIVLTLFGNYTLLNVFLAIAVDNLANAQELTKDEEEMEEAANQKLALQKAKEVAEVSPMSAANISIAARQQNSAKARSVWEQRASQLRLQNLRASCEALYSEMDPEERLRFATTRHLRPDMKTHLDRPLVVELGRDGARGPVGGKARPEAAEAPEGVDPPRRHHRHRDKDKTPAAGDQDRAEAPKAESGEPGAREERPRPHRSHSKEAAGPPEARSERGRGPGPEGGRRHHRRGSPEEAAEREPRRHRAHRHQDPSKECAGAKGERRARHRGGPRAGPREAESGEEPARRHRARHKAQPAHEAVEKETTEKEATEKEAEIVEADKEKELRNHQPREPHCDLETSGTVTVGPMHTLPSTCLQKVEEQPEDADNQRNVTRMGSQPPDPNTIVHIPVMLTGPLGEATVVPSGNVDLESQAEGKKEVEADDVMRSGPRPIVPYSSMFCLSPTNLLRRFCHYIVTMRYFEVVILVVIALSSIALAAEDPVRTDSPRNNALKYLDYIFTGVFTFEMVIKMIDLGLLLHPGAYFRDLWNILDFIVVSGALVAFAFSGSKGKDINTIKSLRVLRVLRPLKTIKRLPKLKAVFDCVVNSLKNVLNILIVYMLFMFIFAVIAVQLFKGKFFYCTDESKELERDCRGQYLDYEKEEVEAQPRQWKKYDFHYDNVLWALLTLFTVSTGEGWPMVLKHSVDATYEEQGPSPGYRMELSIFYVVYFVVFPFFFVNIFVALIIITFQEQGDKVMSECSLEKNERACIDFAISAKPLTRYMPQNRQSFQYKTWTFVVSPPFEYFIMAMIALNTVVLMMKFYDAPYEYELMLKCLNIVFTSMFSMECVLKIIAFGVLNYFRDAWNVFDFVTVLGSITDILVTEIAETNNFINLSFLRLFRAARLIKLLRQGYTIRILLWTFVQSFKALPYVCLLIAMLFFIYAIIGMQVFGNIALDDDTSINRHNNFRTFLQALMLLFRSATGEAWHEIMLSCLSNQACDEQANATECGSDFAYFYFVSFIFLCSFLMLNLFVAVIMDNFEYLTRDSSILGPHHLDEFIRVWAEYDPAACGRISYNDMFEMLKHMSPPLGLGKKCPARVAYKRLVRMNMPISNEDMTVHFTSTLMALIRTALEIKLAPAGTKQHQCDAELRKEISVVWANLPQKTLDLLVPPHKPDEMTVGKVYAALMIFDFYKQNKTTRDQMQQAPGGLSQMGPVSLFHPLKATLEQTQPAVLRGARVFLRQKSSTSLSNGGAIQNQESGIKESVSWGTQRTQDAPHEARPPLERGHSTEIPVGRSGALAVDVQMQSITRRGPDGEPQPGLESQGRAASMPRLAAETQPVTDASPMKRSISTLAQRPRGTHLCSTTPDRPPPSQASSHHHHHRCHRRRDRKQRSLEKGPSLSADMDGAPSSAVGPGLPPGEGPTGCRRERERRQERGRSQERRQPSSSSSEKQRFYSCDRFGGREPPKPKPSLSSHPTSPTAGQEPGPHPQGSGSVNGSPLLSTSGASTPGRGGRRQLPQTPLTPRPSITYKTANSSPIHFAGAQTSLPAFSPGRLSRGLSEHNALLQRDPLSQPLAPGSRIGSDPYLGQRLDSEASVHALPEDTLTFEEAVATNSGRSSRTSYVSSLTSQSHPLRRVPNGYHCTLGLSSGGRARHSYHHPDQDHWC
T1 sequence (Q02410 whole entry): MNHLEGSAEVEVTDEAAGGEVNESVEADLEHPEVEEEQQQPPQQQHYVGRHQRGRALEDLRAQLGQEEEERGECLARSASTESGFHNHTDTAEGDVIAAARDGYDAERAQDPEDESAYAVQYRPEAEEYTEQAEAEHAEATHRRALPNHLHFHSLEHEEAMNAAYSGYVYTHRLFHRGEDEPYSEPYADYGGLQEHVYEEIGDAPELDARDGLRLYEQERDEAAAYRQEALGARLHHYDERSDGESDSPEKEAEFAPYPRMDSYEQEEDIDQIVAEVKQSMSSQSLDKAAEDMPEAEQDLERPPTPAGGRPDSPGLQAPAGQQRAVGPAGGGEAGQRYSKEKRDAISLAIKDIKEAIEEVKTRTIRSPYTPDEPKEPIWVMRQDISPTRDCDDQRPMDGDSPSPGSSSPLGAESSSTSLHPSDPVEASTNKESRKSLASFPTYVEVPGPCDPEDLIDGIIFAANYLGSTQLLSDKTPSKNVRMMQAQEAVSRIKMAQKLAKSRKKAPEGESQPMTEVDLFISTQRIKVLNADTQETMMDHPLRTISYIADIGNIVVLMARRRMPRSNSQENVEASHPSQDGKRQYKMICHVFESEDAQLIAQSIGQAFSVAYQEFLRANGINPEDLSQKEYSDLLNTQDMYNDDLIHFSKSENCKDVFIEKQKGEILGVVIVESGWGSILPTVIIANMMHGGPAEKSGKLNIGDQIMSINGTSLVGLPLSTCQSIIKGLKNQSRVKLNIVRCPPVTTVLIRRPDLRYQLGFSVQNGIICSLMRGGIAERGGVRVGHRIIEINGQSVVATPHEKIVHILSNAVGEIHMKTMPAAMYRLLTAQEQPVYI

[17] = biological target: T1, Voltage-gated N-type calcium channel alpha-1B subunit/Amyloid beta A4 precursor protein-binding family A member 1; experiment: disruptors of Mint-PDZ/N-type channel peptide interaction – biochemical, HTRF, SAR follow-up (AID 2489); format: functional
[18] = biological target: Glucose-6-phosphate 1-dehydrogenase (Homo sapiens, UniProt P11413); experiment: inhibition of Homo sapiens G6PD, dose series – biochemical, fluorescence, selectivity assay for P. falciparum G6PD inhibitor project, dose response (AID 504792); format: functional

Structure (SMILES): CCc1nc2ccccc2c(C(=O)OCC(=O)Nc2cccc(S(=O)(=O)N3CCOCC3)c2)c1C
IC50 (HEK293 [1]): 9.75 µM (active) | AC50 [2]: 44.6 µM (active) | EC50 (HEK293 [3]): 5.64 µM (active) | AC50 [4]: 13.9 µM (active) | EC50 [5]: 10.2 µM (active) | IC50 (HEK293 [6]): 4.01 µM (active) | EC50 [7]: 12.8 µM (active) | IC50 (HEK293 [8]): 5.81 µM (inactive) | IC50 (HEK293 [9]): > 20 µM (inactive) | AC50 [10]: 31.5 µM (active)

AC50 (Cytochrome P450 2D6): inconclusive | AC50 (Cytochrome P450 3A4): 5.01 µM (inconclusive)
Structure (SMILES): C[C@@H]1/C=C\CC(=O)OC[C@H]2O[C@@H](C=C[C@@H]2O)[C@H](C)/C=C\CC(=O)OC1

Structure (SMILES): O=C(CSc1ncnc2c1oc1ccccc12)N1CCCc2ccccc21
IC50 (HEK293 [1]): 9.45 µM (active) | EC50 [11]: 85.1 µM (not active) | EC50 (HEK293 [3]): 5.08 µM (active) | EC50 [12]: > 79.4 µM (not active) | IC50 (HEK293 [6]): 4.86 µM (active) | EC50 [7]: 11.9 µM (active) | IC50 (HEK293 [8]): 5.25 µM (inactive) | IC50 (HEK293 [9]): > 20 µM (inactive) | EC50 [13]: > 79.4 µM (inactive)

IC50 (SUMO E1/E2): > 100 µM (inactive)
Structure (SMILES): Nc1ccc2c(c1)C1C=CCC1C(c1ccccc1)N2 (stereo not drawn)

Structure (SMILES): COC(=O)c1ccc(CSc2ncnc3c2sc2nc(N4CCOCC4)c4c(c23)CCCC4)o1
EC50 (HEK293 [14]): > 59.7 µM (inactive) | EC50 (HEK293 [15]): > 59.7 µM (inactive)

IC50 (SUMO E1/E2): 4.64 µM (active) | IC50 [16]: 11.1 µM (active) | IC50 [17]: 30.4 µM (active)
Structure (SMILES): O=C(COC(=O)c1cc(-c2ccco2)nc2ccccc12)NCc1ccc(F)cc1

IC50 [18]: > 80 µM (inactive)
Structure (SMILES): Cc1cc(O)nc(N/N=C/c2c(C)nn(-c3ccccc3)c2Cl)n1

Reference: ChEMBL document CHEMBL1201862, “PubChem BioAssay data set” (2004)
